This passage reports TGI results from PubChem BioAssay (NCI).

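1) Cells in 96-well plates. 2) Compound, 48 h, 5 concentrations. 3) Linear interpolation between surrounding doses. 4) Unreached endpoint = highest concentration. TGI: concentration producing complete growth inhibition.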

One test deals with OVCAR-8 ovarian. Nature of the test: inhibition of tumour cell growth, NCI panel, 48 h.
For the molecule `Cc1cc(O)cc(O)c1N=Nc1ccc([N+](=O)[O-])cc1`, the TGI is more than 100 µM.

On to `CCOC(=O)c1c(SCCN2CCCC2)n(-c2ccccc2)c(=S)n(-c2ccccc2)c1=O`, for which the TGI is 4.29 µM.

As to `CCOC(=O)c1c(N)n(-c2ccccc2)c(=S)n(-c2ccccc2)c1=O`, the TGI is more than 100 µM.

The next test relates to HL-60(TB) leukemia. Nature of the test: inhibition of tumour cell growth, NCI panel, 48 h.
Molecule `Cc1nc2cc(C(F)(F)F)ccc2[nH]c1=O` came in with a TGI of more than 100 µM.

As to `CC1=CC=CC(C)(C)CC1(O[Si](C)(C)C)C(F)(F)F` (stereo not drawn), the TGI is more than 100 µM.

On to `CN(C)c1ccc(/C(Br)=C2\OC(=O)c3ccccc32)cc1`, for which the TGI is more than 100 µM.

In turn, `CN1C(=O)CN(NC(=O)C2=C(O)c3ccc(Br)cc3S(=O)(=O)N2)C1=S` came in with a TGI of more than 100 µM.

Molecule `O=C1CC(c2ccc([N+](=O)[O-])cc2)C2(C(=O)NC(=S)NC2=O)C(c2ccc([N+](=O)[O-])cc2)C1` (stereo not drawn) came in with a TGI of more than 100 µM.

`O=C1OC[C@@H]2Cc3c([nH]c4ccccc34)[C@@H](c3ccc(O)cc3)N12` registered a TGI of more than 81.7 µM.

`Nc1ncnc2c1ncn2C(=O)NC12CC3CC(CC(C3)C1)C2` registered a TGI of more than 100 µM.

Consider `CC1=C2c3ccccc3N(C(=O)/C=C/C(=O)O)[C@H]2[C@H]2C(=O)OC(=O)[C@H]2C1`, for which the TGI is more than 10 µM.

`CN1CCN(C(=S)N(C)C(=O)c2ccc(Cl)cc2)CC1` showed a TGI of more than 100 µM.

For `CCOP(=O)(OCC)/C(F)=C/c1ccccc1`, the TGI was more than 100 µM.

As to `CC(C)(CO)N1C(=O)c2ccccc2C1(O)c1ccc(Cl)cc1` (stereo not drawn), the TGI was more than 100 µM.

`Cc1cccc(N(CCC#N)S(=O)(=O)c2ccccc2)c1` displayed a TGI of more than 100 µM.

Turning to `c1ccc2c(c1)CCCN1CCc3ccccc3C21` (stereo not drawn), the TGI is more than 100 µM.

`CN1CN(c2ccccc2)C2(CCN(CCCC3(c4cccs4)OCCO3)CC2)C1=O`: the TGI was more than 100 µM.

`Cc1cc(O)cc(O)c1N=Nc1ccc([N+](=O)[O-])cc1` registered a TGI of more than 100 µM.

Take `CCOC(=O)c1c(SCCN2CCCC2)n(-c2ccccc2)c(=S)n(-c2ccccc2)c1=O`: the TGI is 3.52 µM.

In the case of `Cc1nc2ccc([N+](=O)[O-])cc2c(=O)n1C(=S)Nc1cccc(Cl)c1`, the TGI was 50.6 µM.

In the case of `CCOC(=O)c1c(N)n(-c2ccccc2)c(=S)n(-c2ccccc2)c1=O`, the TGI was more than 100 µM.

In a further test the test system is HOP-62 NSCLC. Nature of the test: inhibition of tumour cell growth, NCI panel, 48 h.
`Cc1nc2cc(C(F)(F)F)ccc2[nH]c1=O` registered a TGI of more than 100 µM.

Consider `CC1=CC=CC(C)(C)CC1(O[Si](C)(C)C)C(F)(F)F` (stereo not drawn), for which the TGI is more than 100 µM.

Regarding `CN(C)c1ccc(/C(Br)=C2\OC(=O)c3ccccc32)cc1`, the TGI is more than 100 µM.

In turn, `CN1C(=O)CN(NC(=O)C2=C(O)c3ccc(Br)cc3S(=O)(=O)N2)C1=S` gave a TGI of more than 100 µM.

Molecule `O=C1CC(c2ccc([N+](=O)[O-])cc2)C2(C(=O)NC(=S)NC2=O)C(c2ccc([N+](=O)[O-])cc2)C1` (stereo not drawn) returned a TGI of 56 µM.

For `O=C1OC[C@@H]2Cc3c([nH]c4ccccc34)[C@@H](c3ccc(O)cc3)N12`, the TGI is more than 84.6 µM.

The molecule `Nc1ncnc2c1ncn2C(=O)NC12CC3CC(CC(C3)C1)C2` showed a TGI of more than 100 µM.

`CC1=C2c3ccccc3N(C(=O)/C=C/C(=O)O)[C@H]2[C@H]2C(=O)OC(=O)[C@H]2C1` returned a TGI of more than 10 µM.

As to `CCOP(=O)(OCC)/C(F)=C/c1ccccc1`, the TGI is more than 100 µM.

Turning to `CC(C)(CO)N1C(=O)c2ccccc2C1(O)c1ccc(Cl)cc1` (stereo not drawn), the TGI is more than 100 µM.

The molecule `Cc1cccc(N(CCC#N)S(=O)(=O)c2ccccc2)c1` gave a TGI of more than 100 µM.

With `c1ccc2c(c1)CCCN1CCc3ccccc3C21` (stereo not drawn), the TGI was more than 100 µM.

In turn, `CN1CN(c2ccccc2)C2(CCN(CCCC3(c4cccs4)OCCO3)CC2)C1=O` displayed a TGI of more than 100 µM.

Turning to `Cc1cc(O)cc(O)c1N=Nc1ccc([N+](=O)[O-])cc1`, the TGI is more than 100 µM.

As to `CCOC(=O)c1c(SCCN2CCCC2)n(-c2ccccc2)c(=S)n(-c2ccccc2)c1=O`, the TGI was determined as 36.6 µM.

On to `Cc1nc2ccc([N+](=O)[O-])cc2c(=O)n1C(=S)Nc1cccc(Cl)c1`, for which the TGI was 44.6 µM.

The next test concerns 786-0 renal. Nature of the test: inhibition of tumour cell growth, NCI panel, 48 h.
The molecule `Cc1nc2cc(C(F)(F)F)ccc2[nH]c1=O` returned a TGI of more than 100 µM.

Molecule `CC1=CC=CC(C)(C)CC1(O[Si](C)(C)C)C(F)(F)F` (stereo not drawn) had a TGI of more than 100 µM.

Take `CN(C)c1ccc(/C(Br)=C2\OC(=O)c3ccccc32)cc1`: the TGI is more than 100 µM.

Regarding `CN1C(=O)CN(NC(=O)C2=C(O)c3ccc(Br)cc3S(=O)(=O)N2)C1=S`, the TGI was more than 100 µM.

Take `O=C1CC(c2ccc([N+](=O)[O-])cc2)C2(C(=O)NC(=S)NC2=O)C(c2ccc([N+](=O)[O-])cc2)C1` (stereo not drawn): the TGI worked out at 87.7 µM.

`O=C1OC[C@@H]2Cc3c([nH]c4ccccc34)[C@@H](c3ccc(O)cc3)N12` came in with a TGI of more than 100 µM.

On to `Nc1ncnc2c1ncn2C(=O)NC12CC3CC(CC(C3)C1)C2`, for which the TGI is more than 100 µM.

On to `CN1CCN(C(=S)N(C)C(=O)c2ccc(Cl)cc2)CC1`, for which the TGI is more than 100 µM.

`CCOP(=O)(OCC)/C(F)=C/c1ccccc1` had a TGI of more than 100 µM.

Molecule `CC(C)(CO)N1C(=O)c2ccccc2C1(O)c1ccc(Cl)cc1` (stereo not drawn) came in with a TGI of more than 100 µM.

In the case of `Cc1cccc(N(CCC#N)S(=O)(=O)c2ccccc2)c1`, the TGI was more than 100 µM.

`c1ccc2c(c1)CCCN1CCc3ccccc3C21` (stereo not drawn) yielded a TGI of more than 100 µM.

Take `CN1CN(c2ccccc2)C2(CCN(CCCC3(c4cccs4)OCCO3)CC2)C1=O`: the TGI is more than 100 µM.

`CCOC(=O)c1c(SCCN2CCCC2)n(-c2ccccc2)c(=S)n(-c2ccccc2)c1=O` showed a TGI of 2.89 µM.

`Cc1nc2ccc([N+](=O)[O-])cc2c(=O)n1C(=S)Nc1cccc(Cl)c1` registered a TGI of 78 µM.

The molecule `CCOC(=O)c1c(N)n(-c2ccccc2)c(=S)n(-c2ccccc2)c1=O` yielded a TGI of more than 100 µM.
